These compounds were tested against T1, TrpRA153 (AWY96_RS12805) (Serratia plymuthica, UniProt A0A2X4U763) (assay: isothermal titration calorimetry).
T1 construct: gene trpR
Assay type: binding

| SMILES | Kd |
| --- | --- |
| O=C(O)C(=O)Cc1c[nH]c2ccccc12 [IPA, indole-3-pyruvic acid] | 101 ± 7 µM |
| N[C@@H](Cc1c[nH]c2ccccc12)C(=O)O [L-Trp] | 91 ± 3 µM |
| O=C(O)Cc1c[nH]c2ccccc12 [IAA, indole-3-acetic acid] | 326 ± 30 µM |

Reference: publication PMC11264596, “Auxin-mediated regulation of susceptibility to toxic metabolites, c-di-GMP levels, and phage infection in the rhizobacterium Serratia plymuthica” (mSystems, 2024)
